Test results reported in patent US10730874B2 (Shire Human Genetic Therapies, Inc., priority 2018, dated 2020).

Target: human activated kallikrein enzyme (plasma kallikrein) (Homo sapiens (Human), UniProt P03952)
Assay: Inhibition of human activated plasma kallikrein, fluorogenic peptide substrate assay, 500 pM enzyme format
Assay type: biochemical
Details: 500 pM activated kallikrein enzyme, 300 uM Pro-Phe-Arg-7-amido-4-methylcoumarin substrate, 30 min preincubation, 10 min at RT; read-out: Primary Dose Response Assay: Average EC50
Procedure, shortened: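 Buffer 20 mM Tris pH 7.5, EDTA, NaCl, PEG-400, Triton X-100; 300 uM Pro-Phe-Arg-AMC; enzyme–inhibitor preincubation 30 min RT. Format one: 500 pM kallikrein, 10 min RT reaction; format two: 5 pM kallikrein, 18 h RT reaction. Fluorescence read at 460 nm (380 nm excitation).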

Sequence of human activated kallikrein enzyme (plasma kallikrein) (P03952 391-638): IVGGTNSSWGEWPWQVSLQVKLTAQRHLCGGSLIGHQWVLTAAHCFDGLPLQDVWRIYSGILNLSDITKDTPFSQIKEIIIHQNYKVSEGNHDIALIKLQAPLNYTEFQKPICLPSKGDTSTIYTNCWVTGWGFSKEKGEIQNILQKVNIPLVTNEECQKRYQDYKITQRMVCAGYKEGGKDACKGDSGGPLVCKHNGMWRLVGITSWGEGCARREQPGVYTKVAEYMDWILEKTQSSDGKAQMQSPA
Sequence of human activated kallikrein enzyme (plasma kallikrein) (P03952 20-390 partner): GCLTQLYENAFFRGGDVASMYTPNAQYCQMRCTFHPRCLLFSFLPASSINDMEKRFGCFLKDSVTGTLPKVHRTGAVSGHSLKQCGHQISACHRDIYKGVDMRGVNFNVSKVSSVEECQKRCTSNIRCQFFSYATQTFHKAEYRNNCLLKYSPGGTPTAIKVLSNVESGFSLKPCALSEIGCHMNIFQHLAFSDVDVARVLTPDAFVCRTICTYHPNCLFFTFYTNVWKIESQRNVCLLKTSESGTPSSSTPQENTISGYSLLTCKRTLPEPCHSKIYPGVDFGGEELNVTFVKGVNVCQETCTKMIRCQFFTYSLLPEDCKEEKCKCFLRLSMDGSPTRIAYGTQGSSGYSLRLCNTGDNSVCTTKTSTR

Row | SMILES | EC50
1 | O=C(NCc1ncn2ccc(Cl)cc12)c1cnn(Cc2cn3cc(C4CC4)cc(C(O)C4COC4)c3n2)c1 (stereo not drawn) [Example I-141, N-((7-chloroimidazo[1,5-a]pyridin-1-yl)methyl)-1-((6-cyclopropyl-8-(hydroxy(oxetan-3-yl)methyl)imidazo[1,2-a]pyridin-2-yl)methyl)-1H-pyrazole-4-carboxamide] | < 1 nM
2 | COc1c(C2CC2)ccc2nc(Cn3cc(C(=O)NCc4ncn5ccc(Cl)cc45)cn3)cn12 [Example I-142, N-((7-chloroimidazo[1,5-a]pyridin-1-yl)methyl)-1-((6-cyclopropyl-5-methoxyimidazo[1,2-a]pyridin-2-yl)methyl)-1H-pyrazole-4-carboxamide] | 1 to 10 nM
3 | O=C(NCc1ncn2ccc(Cl)cc12)c1cnn(Cc2cn3cc(C4CC4)cc(C(F)(F)F)c3n2)c1 [Example I-143, N-((7-chloroimidazo[1,5-a]pyridin-1-yl)methyl)-1-((6-cyclopropyl-8-(trifluoromethyl)imidazo[1,2-a]pyridin-2-yl)methyl)-1H-pyrazole-4-carboxamide] | < 1 nM
4 | O=C(NCc1ncn2cc(F)c(Br)cc12)c1cnn(Cc2cn3cc(C4CC4)ccc3n2)c1 [Example I-151, N-((7-bromo-6-fluoroimidazo[1,5-a]pyridin-1-yl)methyl)-1-((6-cyclopropylimidazo[1,2-a]pyridin-2-yl)methyl)-1H-pyrazole-4-carboxamide] | 10 to 100 nM
5 | O=C(NCc1ncn2ccc(Cl)cc12)c1ncn(Cc2cn3cc(C4CC4)ccc3n2)n1 [Example I-152, N-((7-chloroimidazo[1,5-a]pyridin-1-yl)methyl)-1-((6-cyclopropylimidazo[1,2-a]pyridin-2-yl)methyl)-1H-1,2,4-triazole-3-carboxamide] | < 1 nM
6 | N#Cc1cc(C2CC2)cn2cc(Cc3nnc(C(=O)NCc4ncn5ccc(Br)c(F)c45)o3)nc12 [Example I-154, N-((7-bromo-8-fluoroimidazo[1,5-a]pyridin-1-yl)methyl)-5-((8-cyano-6-cyclopropylimidazo[1,2-a]pyridin-2-yl)methyl)-1,3,4-oxadiazole-2-carboxamide] | < 1 nM
7 | O=C(NCc1ncn2ccc(Cl)cc12)c1cnn(Cc2cn3cc(C4CC4)cc(Cc4nnco4)c3n2)c1 [Example I-155, 1-((8-((1,3,4-oxadiazol-2-yl)methyl)-6-cyclopropylimidazo[1,2-a]pyridin-2-yl)methyl)-N-((7-chloroimidazo[1,5-a]pyridin-1-yl)methyl)-1H-pyrazole-4-carboxamide] | < 1 nM
8 | O=C(NCc1ncn2ccc(Cl)c(F)c12)c1nnc(Cc2cn3nc(C4CC4)ccc3n2)o1 [Example I-156, N-((7-chloro-8-fluoroimidazo[1,5-a]pyridin-1-yl)methyl)-5-((6-cyclopropylimidazo[1,2-b]pyridazin-2-yl)methyl)-1,3,4-oxadiazole-2-carboxamide] | < 1 nM
9 | N#Cc1cc(C2CC2)cn2cc(Cc3nnc(C(=O)NCc4ncn5ccc(Cl)c(F)c45)o3)nc12 [Example I-158, N-((7-chloro-8-fluoroimidazo[1,5-a]pyridin-1-yl)methyl)-5-((8-cyano-6-cyclopropylimidazo[1,2-a]pyridin-2-yl)methyl)-1,3,4-oxadiazole-2-carboxamide] | < 1 nM
10 | CS(=O)(=O)c1cc(C2CC2)cn2cc(Cn3cc(C(=O)NCc4ncn5ccc(Cl)cc45)cn3)nc12 [Example I-159, N-((7-chloroimidazo[1,5-a]pyridin-1-yl)methyl)-1-((6-cyclopropyl-8-(methylsulfonyl)imidazo[1,2-a]pyridin-2-yl)methyl)-1H-pyrazole-4-carboxamide] | < 1 nM
11 | Cn1nc(C(=O)NCc2ncn3ccc(Cl)cc23)nc1Cc1cn2cc(C3CC3)ccc2n1 [Example I-160, N-((7-chloroimidazo[1,5-a]pyridin-1-yl)methyl)-5-((6-cyclopropylimidazo[1,2-a]pyridin-2-yl)methyl)-1-methyl-1H-1,2,4-triazole-3-carboxamide] | 1 to 10 nM
12 | O=C(NCc1ncn2ccc(Cl)cc12)c1nnc(Cc2cn3cc(C4CC4)ccc3n2)[nH]1 [Example I-161, N-((7-chloroimidazo[1,5-a]pyridin-1-yl)methyl)-5-((6-cyclopropylimidazo[1,2-a]pyridin-2-yl)methyl)-4H-1,2,4-triazole-3-carboxamide] | 1 to 10 nM
13 | CCOC(=O)C(C)(C)Cc1cc(C2CC2)cn2cc(Cn3cc(C(=O)NCc4ncn5ccc(Cl)cc45)cn3)nc12 [Example I-162, ethyl 3-(2-((4-(((7-chloroimidazo[1,5-a]pyridin-1-yl)methyl)carbamoyl)-1H-pyrazol-1-yl)methyl)-6-cyclopropylimidazo[1,2-a]pyridin-8-yl)-2,2-dimethylpropanoate] | < 1 nM
14 | O=C(NCc1ncn2ccc(Cl)c(F)c12)c1cn(Cc2cn3cc(C4CC4)cnc3n2)nn1 [Example I-165, N-((7-chloro-8-fluoroimidazo[1,5-a]pyridin-1-yl)methyl)-1-((6-cyclopropylimidazo[1,2-a]pyrimidin-2-yl)methyl)-1H-1,2,3-triazole-4-carboxamide] | < 1 nM

Now from value to molecule:

Row | EC50 | SMILES
15 | < 1 nM | O=C(NCc1ncn2ccc(Cl)cc12)c1cn(Cc2cn3c(F)c(C4CC4)ccc3n2)nn1 [Example I-144, N-((7-chloroimidazo[1,5-a]pyridin-1-yl)methyl)-1-((6-cyclopropyl-5-fluoroimidazo[1,2-a]pyridin-2-yl)methyl)-1H-1,2,3-triazole-4-carboxamide]
16 | < 1 nM | O=C(NCc1ncn2ccc(Br)c(F)c12)c1cn(Cc2cn3c(F)c(C4CC4)ccc3n2)nn1 [Example I-145, N-((7-bromo-8-fluoroimidazo[1,5-a]pyridin-1-yl)methyl)-1-((6-cyclopropyl-5-fluoroimidazo[1,2-a]pyridin-2-yl)methyl)-1H-1,2,3-triazole-4-carboxamide]
17 | < 1 nM | O=C(NCc1ncn2ccc(Cl)c(F)c12)c1cnn(Cc2cn3nc(C4CC4)ccc3n2)c1 [Example I-146, N-((7-chloro-8-fluoroimidazo[1,5-a]pyridin-1-yl)methyl)-1-((6-cyclopropylimidazo[1,2-b]pyridazin-2-yl)methyl)-1H-pyrazole-4-carboxamide]
18 | < 1 nM | O=C(NCc1ncn2ccc(Cl)c(F)c12)c1cnn(Cc2cn3cc(C4CC4)ccc3n2)c1 [Example I-147, N-((7-chloro-8-fluoroimidazo[1,5-a]pyridin-1-yl)methyl)-1-((6-cyclopropylimidazo[1,2-a]pyridin-2-yl)methyl)-1H-pyrazole-4-carboxamide]
19 | < 1 nM | O=C(NCc1ncn2ccc(Cl)c(F)c12)c1cn(Cc2cn3cc(C4CC4)ccc3n2)nn1 [Example I-148, N-((7-chloro-8-fluoroimidazo[1,5-a]pyridin-1-yl)methyl)-1-((6-cyclopropylimidazo[1,2-a]pyridin-2-yl)methyl)-1H-1,2,3-triazole-4-carboxamide]
20 | < 1 nM | N#Cc1cc(C2CC2)cn2cc(Cn3cc(C(=O)NCc4ncn5ccc(Cl)c(F)c45)nn3)nc12 [Example I-149, N-((7-chloro-8-fluoroimidazo[1,5-a]pyridin-1-yl)methyl)-1-((8-cyano-6-cyclopropylimidazo[1,2-a]pyridin-2-yl)methyl)-1H-1,2,3-triazole-4-carboxamide]
21 | < 1 nM | O=C(NCc1ncn2ccc(Cl)c(F)c12)c1cn(Cc2cn3nc(C4CC4)ccc3n2)nn1 [Example I-150, N-((7-chloro-8-fluoroimidazo[1,5-a]pyridin-1-yl)methyl)-1-((6-cyclopropylimidazo[1,2-b]pyridazin-2-yl)methyl)-1H-1,2,3-triazole-4-carboxamide]
22 | < 1 nM | O=C(NCc1ncn2ccc(Cl)cc12)c1cn(Cc2cn3cc(C4CC4)cc(C4(O)COC4)c3n2)nn1 [Example I-153, N-((7-chloroimidazo[1,5-a]pyridin-1-yl)methyl)-1-((6-cyclopropyl-8-(3-hydroxyoxetan-3-yl)imidazo[1,2-a]pyridin-2-yl)methyl)-1H-1,2,3-triazole-4-carboxamide]
23 | < 1 nM | CCOC(=O)Cc1cc(C2CC2)cn2cc(Cn3cc(C(=O)NCc4ncn5ccc(Cl)c(F)c45)nn3)nc12 [Example I-157a, ethyl 2-(2-((4-(((7-chloro-8-fluoroimidazo[1,5-a]pyridin-1-yl)methyl)carbamoyl)-1H-1,2,3-triazol-1-yl)methyl)-6-cyclopropylimidazo[1,2-a]pyridin-8-yl)acetate]
24 | < 1 nM | O=C(O)Cc1cc(C2CC2)cn2cc(Cn3cc(C(=O)NCc4ncn5ccc(Cl)c(F)c45)nn3)nc12 [Example I-157b, 2-(2-((4-(((7-chloro-8-fluoroimidazo[1,5-a]pyridin-1-yl)methyl)carbamoyl)-1H-1,2,3-triazol-1-yl)methyl)-6-cyclopropylimidazo[1,2-a]pyridin-8-yl)acetic acid]
25 | < 1 nM | CCOC(=O)CCc1cc(C2CC2)cn2cc(Cn3cc(C(=O)NCc4ncn5ccc(Cl)c(F)c45)nn3)nc12 [Example I-163a, ethyl 3-(2-((4-(((7-chloro-8-fluoroimidazo[1,5-a]pyridin-1-yl)methyl)carbamoyl)-1H-1,2,3-triazol-1-yl)methyl)-6-cyclopropylimidazo[1,2-a]pyridin-8-yl)propanoate]
26 | < 1 nM | O=C(O)CCc1cc(C2CC2)cn2cc(Cn3cc(C(=O)NCc4ncn5ccc(Cl)c(F)c45)nn3)nc12 [Example I-163b, 3-(2-((4-(((7-chloro-8-fluoroimidazo[1,5-a]pyridin-1-yl)methyl)carbamoyl)-1H-1,2,3-triazol-1-yl)methyl)-6-cyclopropylimidazo[1,2-a]pyridin-8-yl)propanoic acid]
27 | < 1 nM | CCOC(=O)c1cc(C2CC2)cn2cc(Cn3cc(C(=O)NCc4ncn5ccc(Cl)c(F)c45)nn3)nc12 [Example I-166a, ethyl 2-((4-(((7-chloro-8-fluoroimidazo[1,5-a]pyridin-1-yl)methyl)carbamoyl)-1H-1,2,3-triazol-1-yl)methyl)-6-cyclopropylimidazo[1,2-a]pyridine-8-carboxylate]
